Activity calls are given as the source filed them. The calls are words filed in the database; no cut-off is given here.
What was measured:
A-431 [1] = assay: Cytotoxicity against human A431 cells measured after 24 hrs by WST-1 assay; assay type: functional, cell-based; conditions: A-431, 24 h
[2] = Drug metabolism in human A431 cells assessed as 4-((4-((3-Chloro-4-fluorophenyl)amino)-6-(3-morpholinopropoxy)quinazolin-7-yl)oxy)butan-1-ol metabolite formation at 3 uM measured after 24 hrs by HPLC analysis; assay type: ADME, cell-based; conditions: a-431, 24 h
A-431 [3] = assay: Radio-sensitinzing effect in human A431 cells assessed as reduction in surviving fraction incubated at 1 uM for 24 hrs with X-ray followed by measured after 7 days by Giemsa staining relative to control; assay type: functional; conditions: time 8 day
HepG2 [4] = assay: Inhibition of GLUT in human HepG2 cells assessed as inhibition of 2-NBDG uptake at 10 uM incubated for 20 mins by fluorescence microplate reader; assay type: cell-based
[5] = Drug metabolism in human A431 cells assessed as 2-((4-((3-Chloro-4-fluorophenyl)amino)-6-(3-morpholinopropoxy)quinazolin-7-yl)oxy)ethan-1-ol metabolite formation at 3 uM measured after 24 hrs by HPLC analysis; assay type: ADME, cell-based; conditions: a-431, 24 h
HepG2 [6] = assay: Inhibition of GLUT in human HepG2 cells assessed as inhibition of 2-NBDG uptake incubated for 20 mins by fluorescence microplate reader; assay type: cell-based; conditions: dose 10-30 µM
[7] = Drug metabolism in human A431 cells assessed as 3-((4-((3-Chloro-4-fluorophenyl)amino)-6-(3-morpholinopropoxy)quinazolin-7-yl)oxy)propan-1-ol metabolite formation at 3 uM measured after 24 hrs by HPLC analysis; assay type: ADME, cell-based; conditions: a-431, 24 h

| Drug metabolism [2] | Drug metabolism [5] | Drug metabolism [7] | SMILES | IC50 (A-431 [1]) [µM] | fold change (FC) (A-431 [3]) | inhibition (HepG2 [4]) | inhibition (HepG2 [6]) |
| --- | --- | --- | --- | --- | --- | --- | --- |
| Metabolite_Detected |  |  | CC(=O)OC[C@H]1OC(OCCCCOc2cc3ncnc(Nc4ccc(F)c(Cl)c4)c3cc2OCCCN2CCOCC2)[C@H](OC(C)=O)[C@@H](OC(C)=O)[C@@H]1OC(C)=O (stereo partly specified) | 39.4 | 0.202 |  |  |
|  |  |  | C=C1[C@@H](C)[C@H]2[C@H](Cc3ccccc3)NC(=O)[C@]23OC(=O)/C=C/[C@H](O)CCC[C@@H](C)C/C=C/[C@H]3[C@@H]1O |  |  | Active |  |
|  | Metabolite_Detected |  | CC(=O)OC[C@H]1OC(OCCOc2cc3ncnc(Nc4ccc(F)c(Cl)c4)c3cc2OCCCN2CCOCC2)[C@H](OC(C)=O)[C@@H](OC(C)=O)[C@@H]1OC(C)=O (stereo partly specified) | 34.3 | 0.175 |  | Dose-dependent effect |
|  |  | Metabolite_Detected | CC(=O)OC[C@H]1OC(OCCCOc2cc3ncnc(Nc4ccc(F)c(Cl)c4)c3cc2OCCCN2CCOCC2)[C@H](OC(C)=O)[C@@H](OC(C)=O)[C@@H]1OC(C)=O (stereo partly specified) | 36.8 | 0.216 |  |  |

Source: ChEMBL document CHEMBL4680301, “Development of a novel acetyl glucose-modified gefitinib derivative to enhance the radiosensitizing effect” (Bioorg Med Chem, 2021)
